# Measurements as given in patent publication US12691112B2, “FGFR tyrosine kinase inhibitors for the treatment of urothelial carcinoma” (Janssen Pharmaceutica NV, priority 2019, dated 2026).
# System: subjects with metastatic or surgically unresectable urothelial cancer
# Details: all-causality; 10 mg intermittent, n = 33
smiles,measurement,value
"COc1cc(OC)cc(N(CCNC(C)C)c2ccc3ncc(-c4cnn(C)c4)nc3c2)c1 [erdafitinib, N-(3,5-dimethoxy-phenyl)-N′-(1-methylethyl)-N-[3-(1-methyl-1H-pyrazol-4-yl)quinoxalin-6-yl]ethane-1,2-diamine]","Decreased appetite, grade ≥ 3",1 no.
same,"Diarrhea, any grade",14 no.
same,"Diarrhea, grade 1",7 no.
same,"Diarrhea, grade 2",6 no.
same,"Diarrhea, grade ≥ 3",1 no.
same,"Dry eye, any grade",3 no.
same,"Dry eye, grade 1",2 no.
same,"Dry eye, grade 2",1 no.
same,"Dry eye, grade ≥ 3",0 no.
same,"Dry mouth, any grade",16 no.
same,"Dry mouth, grade 1",15 no.
same,"Dry mouth, grade 2",1 no.
same,"Dry mouth, grade ≥ 3",0 no.
same,"Dry skin, any grade",9 no.
same,"Dry skin, grade 1",8 no.
same,"Dry skin, grade 2",1 no.
same,"Dry skin, grade ≥ 3",0 no.
same,"Dysgeusia, any grade",10 no.
same,"Dysgeusia, grade 1",7 no.
same,"Dysgeusia, grade 2",3 no.
same,"Dysgeusia, grade ≥ 3",0 no.
same,"Dyspepsia, any grade",3 no.
same,"Dyspepsia, grade 1",2 no.
same,"Dyspepsia, grade 2",1 no.
same,"Dyspepsia, grade ≥ 3",0 no.
same,"Dyspnea, any grade",8 no.
same,"Dyspnea, grade 1",3 no.
same,"Dyspnea, grade 2",2 no.
same,"Dyspnea, grade ≥ 3",3 no.
same,"Fatigue, any grade",6 no.
same,"Fatigue, grade 1",4 no.
same,"Fatigue, grade 2",2 no.
same,"Fatigue, grade ≥ 3",0 no.
same,"Hand-foot syndrome, any grade",2 no.
same,"Hand-foot syndrome, grade 1",0 no.
same,"Hand-foot syndrome, grade 2",2 no.
same,"Hand-foot syndrome, grade ≥ 3",0 no.
same,"Hematuria, any grade",3 no.
same,"Hematuria, grade 1",1 no.
same,"Hematuria, grade 2",2 no.
same,"Hematuria, grade ≥ 3",0 no.
same,"Hyperphosphatemia, any grade",16 no.
same,"Hyperphosphatemia, grade 1",15 no.
same,"Hyperphosphatemia, grade 2",1 no.
same,"Hyperphosphatemia, grade ≥ 3",0 no.
same,"Hypomagnesemia, any grade",2 no.
same,"Hypomagnesemia, grade 1",2 no.
same,"Hypomagnesemia, grade 2",0 no.
same,"Hypomagnesemia, grade ≥ 3",0 no.
same,"Hyponatremia, any grade",2 no.
same,"Hyponatremia, grade 1",0 no.
same,"Hyponatremia, grade 2",0 no.
same,"Hyponatremia, grade ≥ 3",2 no.
same,"Insomnia, any grade",3 no.
same,"Insomnia, grade 1",0 no.
same,"Insomnia, grade 2",3 no.
same,"Insomnia, grade ≥ 3",0 no.
same,"Lacrimation increased, any grade",6 no.
same,"Lacrimation increased, grade 1",5 no.
same,"Lacrimation increased, grade 2",1 no.
same,"Lacrimation increased, grade ≥ 3",0 no.
same,"Nail dystrophy, any grade",2 no.
same,"Nail dystrophy, grade 1",2 no.
same,"Nail dystrophy, grade 2",0 no.
same,"Nail dystrophy, grade ≥ 3",0 no.
same,"Nausea, any grade",5 no.
same,"Nausea, grade 1",3 no.
same,"Nausea, grade 2",2 no.
same,"Nausea, grade ≥ 3",0 no.
same,"Onycholysis, any grade",7 no.
same,"Onycholysis, grade 1",3 no.
same,"Onycholysis, grade 2",3 no.
same,"Onycholysis, grade ≥ 3",1 no.
same,"Onychomadesis, any grade",1 no.
same,"Onychomadesis, grade 1",1 no.
same,"Onychomadesis, grade 2",0 no.
same,"Onychomadesis, grade ≥ 3",0 no.
same,"Oropharyngeal pain, any grade",0 no.
same,"Oropharyngeal pain, grade 1",0 no.
same,"Oropharyngeal pain, grade 2",0 no.
same,"Oropharyngeal pain, grade ≥ 3",0 no.
same,"Pain in extremity, any grade",5 no.
same,"Pain in extremity, grade 1",3 no.
same,"Pain in extremity, grade 2",1 no.
same,"Pain in extremity, grade ≥ 3",1 no.
same,"Paronychia, any grade",2 no.
